In EP4745135A1 (Gluetacs Therapeutics (Shanghai) Co., Ltd., priority 2023, dated 2025):

Legend:
[1] = tested on: Human multiple myeloma cell (MM.1S); experiment: Tumor cell proliferation inhibition (CellTiter-Meiluncell luminescent cell viability assay); settings: Homo sapiens, MM1.S, 96 h; for inhibition at 0.01 µM: read-out: Inhibition Rate at 10 nM (%); for inhibition at 0.5 µM: read-out: Inhibition Rate at 500 nM (%)
WEE1 = biological target: T1, WEE1 (Homo sapiens, UniProt P30291+Q96SW2); experiment: Western blot, degradation of substrate protein in hPBMCs; format: cell-based
T1 construct: effects of the compounds of the present disclosure on the expression of target proteins in cells; endogenous in cells; host or cells: human PBMCs (Milecell Biotechnologies)

CK1α = biological target: T2, CK1α (Homo sapiens, UniProt P48729+Q96SW2); experiment: as above; format: cell-based
T2 construct: effects of the compounds of the present disclosure on the expression of target proteins in cells; endogenous in cells; host or cells: human PBMCs (Milecell Biotechnologies)

IKZF3 = biological target: T3, IKZF3 (Homo sapiens, UniProt Q96SW2+Q9UKT9); experiment: as above; format: cell-based
T3 construct: effects of the compounds of the present disclosure on the expression of target proteins in cells; endogenous in cells; host or cells: human PBMCs (Milecell Biotechnologies)

IKZF2 = biological target: T4, IKZF2 (Homo sapiens, UniProt Q96SW2+Q9UKS7); experiment: as above; format: cell-based
T4 construct: effects of the compounds of the present disclosure on the expression of target proteins in cells; endogenous in cells; host or cells: human PBMCs (Milecell Biotechnologies)

IKZF1 = biological target: T5, IKZF1 (Homo sapiens, UniProt Q13422+Q96SW2); experiment: as above; format: cell-based
T5 construct: effects of the compounds of the present disclosure on the expression of target proteins in cells; endogenous in cells; host or cells: human PBMCs (Milecell Biotechnologies)

[2] = biological target: T6, human Cereblon WT GST-tagged protein (Homo sapiens, UniProt Q96SW2); experiment: CRBN-binding affinity, HTRF (CEREBLON BINDING kit); settings: for inhibition at 0.5 µM: read-out: Inhibition Rate at 0.5 µM (%); for inhibition at 2 µM: read-out: Inhibition Rate at 2 µM (%)
T6 construct: purchased CISBIO 64BDCRBNPEH

GSPT1 = experiment: Western blot, degradation of substrate protein in hPBMCs; format: cell-based, Human
[3] = tested on: Human acute T lymphocytic leukemia cell (Molt4); experiment: Tumor cell proliferation inhibition (CellTiter-Meiluncell luminescent cell viability assay); settings: MOLT-4, 96 h; for inhibition at 0.01 µM: read-out: Inhibition Rate at 10 nM (%); for inhibition at 0.5 µM: read-out: Inhibition Rate at 500 nM (%)
[4] = tested on: Human myeloid monocytic leukemia cell (MV-4-11); experiment: as above; settings: MV4-11, 96 h; for inhibition at 0.01 µM: read-out: Inhibition Rate at 10 nM (%); for inhibition at 0.5 µM: read-out: Inhibition Rate at 500 nM (%)
Description: The tumor cells used herein were cultured in a cell culture medium listed in table 2 at 37°C in an incubator with 5% CO2. Prior to experimentation, all cell lines used were correctly identified by STR profiling, and tested negative for mycoplasma contamination using a mycoplasma detection kit through routine screenings.
The IC50 values of the compounds of the present disclosure (including the compounds in Table 1 and Examples) were determined using the CellTiter-Meiluncell Luminescent Cell Viability Assay Kit from Dalian Meilun Biotech Co., Ltd. The detailed procedure is as follows: Tumor cells were seeded in 96-well cell culture plates at the densities specified in Table 3. On the following day, the test compounds of the present disclosure were subjected to serial dilution. The dilution can be performed according to one of the following two methods: • (1) The first dilution method: The test compounds of the present disclosure (including the compounds in Table 1 and Examples) were subjected to 5-fold serial dilutions starting from a highest concentration of 2000 µM, resulting in a total of 9 concentrations from high to low (2000, 400, 80, 16, 3.2, 0.64, 0.128, 0.0256, 0.00512 µM). Subsequently, 0.5 µL of the test compound dilution was transferred into the 96-well plate containing the cells, with each well containing 100 µL of cell culture medium. […] Into the 96-well plate, the diluted test compounds and corresponding detection reagents were added, resulting in final test compound concentrations of 500 nM and 10 nM, respectively. The experimental procedure is described below using the diluted 2 µM test compound as an example.
0.5 µL of the aforementioned diluted compound of the present disclosure (including the compounds in Table 1 and Examples) was added to the seeded cells in 100 µL of medium, yielding a final test compound concentration of 10 nM. After the cells were treated with the compounds of the present disclosure for a specified period, the cell viability assay reagent was added to the culture medium according to the kit's instructions to determine cell viability. […] All controls were treated using the same procedure as the compounds of the present disclosure. The growth inhibition curves for the compounds of the present disclosure were plotted using Prism GraphPad software, and the IC50 values were calculated therefrom.

[5] = Western blot, 24 hours of compound treatment, compounds tested at 50 nM and 500 nM (concentration for the table not stated)
[6] = 24 hours treatment, compounds at 50 nM and 500 nM (concentration behind the class not stated)

T5 sequence (Q13422 whole entry): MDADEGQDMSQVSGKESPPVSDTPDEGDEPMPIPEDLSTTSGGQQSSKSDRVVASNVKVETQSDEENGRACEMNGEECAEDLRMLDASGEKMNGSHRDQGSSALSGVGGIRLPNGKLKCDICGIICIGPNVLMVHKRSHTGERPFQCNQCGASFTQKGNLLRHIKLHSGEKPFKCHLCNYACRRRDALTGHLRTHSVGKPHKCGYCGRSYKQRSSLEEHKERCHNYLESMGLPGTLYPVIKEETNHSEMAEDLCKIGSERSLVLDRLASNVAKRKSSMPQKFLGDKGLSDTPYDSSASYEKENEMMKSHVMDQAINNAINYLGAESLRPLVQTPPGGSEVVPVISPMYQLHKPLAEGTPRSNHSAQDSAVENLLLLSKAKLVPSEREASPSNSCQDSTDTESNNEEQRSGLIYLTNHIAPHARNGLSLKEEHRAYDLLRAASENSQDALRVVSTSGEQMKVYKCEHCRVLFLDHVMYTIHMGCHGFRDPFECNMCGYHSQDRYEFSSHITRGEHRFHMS
T5 sequence (Q96SW2 whole entry): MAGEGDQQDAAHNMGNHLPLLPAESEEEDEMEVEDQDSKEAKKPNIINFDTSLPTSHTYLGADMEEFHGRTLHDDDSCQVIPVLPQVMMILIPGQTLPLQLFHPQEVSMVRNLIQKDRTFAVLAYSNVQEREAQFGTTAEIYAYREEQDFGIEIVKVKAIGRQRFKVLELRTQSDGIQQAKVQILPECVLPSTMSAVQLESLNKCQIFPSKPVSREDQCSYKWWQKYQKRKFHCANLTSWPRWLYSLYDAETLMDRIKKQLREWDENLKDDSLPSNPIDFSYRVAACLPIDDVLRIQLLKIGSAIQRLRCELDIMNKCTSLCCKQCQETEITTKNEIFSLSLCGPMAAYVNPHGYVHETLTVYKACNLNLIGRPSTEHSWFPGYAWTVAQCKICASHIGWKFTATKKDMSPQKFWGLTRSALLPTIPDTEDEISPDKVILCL
T5 sequence (Q16531 whole entry partner): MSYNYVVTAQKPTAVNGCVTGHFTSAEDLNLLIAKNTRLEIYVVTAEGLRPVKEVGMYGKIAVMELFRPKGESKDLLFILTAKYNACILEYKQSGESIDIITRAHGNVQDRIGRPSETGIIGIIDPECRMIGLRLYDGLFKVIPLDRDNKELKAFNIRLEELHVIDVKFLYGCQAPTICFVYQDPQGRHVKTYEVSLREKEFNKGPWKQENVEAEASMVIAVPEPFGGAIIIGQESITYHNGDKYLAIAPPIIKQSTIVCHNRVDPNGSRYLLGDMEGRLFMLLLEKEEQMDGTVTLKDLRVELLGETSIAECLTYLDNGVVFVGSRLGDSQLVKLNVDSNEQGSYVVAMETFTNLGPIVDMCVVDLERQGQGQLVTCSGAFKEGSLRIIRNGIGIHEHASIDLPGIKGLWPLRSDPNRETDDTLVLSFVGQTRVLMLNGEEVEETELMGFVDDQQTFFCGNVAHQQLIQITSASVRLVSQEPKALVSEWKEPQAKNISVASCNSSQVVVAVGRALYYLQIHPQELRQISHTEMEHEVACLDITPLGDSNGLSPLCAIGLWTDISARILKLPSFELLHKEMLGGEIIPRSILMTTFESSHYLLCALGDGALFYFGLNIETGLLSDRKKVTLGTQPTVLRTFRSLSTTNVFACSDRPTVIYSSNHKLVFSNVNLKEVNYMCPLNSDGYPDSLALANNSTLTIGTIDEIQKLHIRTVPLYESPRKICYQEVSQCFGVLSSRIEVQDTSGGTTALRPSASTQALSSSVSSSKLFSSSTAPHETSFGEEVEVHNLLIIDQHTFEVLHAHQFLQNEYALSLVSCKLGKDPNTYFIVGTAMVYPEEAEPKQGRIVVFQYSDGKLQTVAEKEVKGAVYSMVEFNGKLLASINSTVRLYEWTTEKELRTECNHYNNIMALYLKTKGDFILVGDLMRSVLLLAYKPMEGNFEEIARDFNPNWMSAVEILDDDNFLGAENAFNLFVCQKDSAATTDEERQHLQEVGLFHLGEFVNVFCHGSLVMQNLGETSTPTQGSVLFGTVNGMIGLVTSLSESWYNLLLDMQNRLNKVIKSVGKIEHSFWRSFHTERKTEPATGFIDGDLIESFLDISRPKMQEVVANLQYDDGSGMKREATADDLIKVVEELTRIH
T6 sequence (Q96SW2 whole entry): as the sequence (Q96SW2 whole entry) above
T1 sequence (P30291 whole entry): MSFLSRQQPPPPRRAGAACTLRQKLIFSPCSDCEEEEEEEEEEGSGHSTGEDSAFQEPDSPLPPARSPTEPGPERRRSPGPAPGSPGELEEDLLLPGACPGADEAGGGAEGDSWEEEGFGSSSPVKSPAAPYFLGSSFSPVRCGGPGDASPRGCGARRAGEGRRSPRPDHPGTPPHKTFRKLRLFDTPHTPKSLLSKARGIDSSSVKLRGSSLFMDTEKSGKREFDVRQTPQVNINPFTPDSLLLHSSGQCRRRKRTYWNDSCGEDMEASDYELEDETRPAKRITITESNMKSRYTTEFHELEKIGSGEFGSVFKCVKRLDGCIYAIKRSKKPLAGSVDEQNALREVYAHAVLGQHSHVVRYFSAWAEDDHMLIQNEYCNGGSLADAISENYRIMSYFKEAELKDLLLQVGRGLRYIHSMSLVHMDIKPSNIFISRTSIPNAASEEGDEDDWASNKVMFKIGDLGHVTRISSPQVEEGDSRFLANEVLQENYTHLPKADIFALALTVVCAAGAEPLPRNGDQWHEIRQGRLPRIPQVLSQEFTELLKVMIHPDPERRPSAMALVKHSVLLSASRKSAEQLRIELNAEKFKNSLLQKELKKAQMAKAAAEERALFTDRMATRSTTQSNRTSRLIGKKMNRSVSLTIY
T1 sequence (Q96SW2 whole entry): as the sequence (Q96SW2 whole entry) above
T1 sequence (Q16531 whole entry partner): as the sequence (Q16531 whole entry partner) above
T2 sequence (P48729 whole entry): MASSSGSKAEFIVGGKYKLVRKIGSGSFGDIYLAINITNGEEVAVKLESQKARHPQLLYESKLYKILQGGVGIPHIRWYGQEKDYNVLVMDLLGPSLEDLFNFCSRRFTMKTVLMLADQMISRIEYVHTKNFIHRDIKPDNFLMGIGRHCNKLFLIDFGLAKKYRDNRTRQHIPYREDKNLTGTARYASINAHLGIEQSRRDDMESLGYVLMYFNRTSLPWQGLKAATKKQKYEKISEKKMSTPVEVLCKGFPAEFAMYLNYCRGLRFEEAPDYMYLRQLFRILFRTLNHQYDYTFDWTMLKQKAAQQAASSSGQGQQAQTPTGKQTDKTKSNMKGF
T2 sequence (Q96SW2 whole entry): as the sequence (Q96SW2 whole entry) above
T2 sequence (Q16531 whole entry partner): as the sequence (Q16531 whole entry partner) above
T3 sequence (Q9UKT9 whole entry): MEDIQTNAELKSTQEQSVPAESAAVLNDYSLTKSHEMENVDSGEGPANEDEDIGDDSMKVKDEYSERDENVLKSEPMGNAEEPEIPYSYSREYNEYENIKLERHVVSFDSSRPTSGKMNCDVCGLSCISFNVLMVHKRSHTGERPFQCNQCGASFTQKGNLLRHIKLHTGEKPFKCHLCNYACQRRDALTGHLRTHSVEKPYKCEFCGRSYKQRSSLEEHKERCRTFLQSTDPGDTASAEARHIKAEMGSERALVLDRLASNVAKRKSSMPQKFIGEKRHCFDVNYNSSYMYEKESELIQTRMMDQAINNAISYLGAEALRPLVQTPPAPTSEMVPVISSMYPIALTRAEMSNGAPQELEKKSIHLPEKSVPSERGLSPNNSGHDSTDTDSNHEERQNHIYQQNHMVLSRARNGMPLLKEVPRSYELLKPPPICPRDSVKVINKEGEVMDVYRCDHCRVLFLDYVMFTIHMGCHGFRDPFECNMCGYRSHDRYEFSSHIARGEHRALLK
T3 sequence (Q96SW2 whole entry): as the sequence (Q96SW2 whole entry) above
T3 sequence (Q16531 whole entry partner): as the sequence (Q16531 whole entry partner) above
T4 sequence (Q9UKS7 whole entry): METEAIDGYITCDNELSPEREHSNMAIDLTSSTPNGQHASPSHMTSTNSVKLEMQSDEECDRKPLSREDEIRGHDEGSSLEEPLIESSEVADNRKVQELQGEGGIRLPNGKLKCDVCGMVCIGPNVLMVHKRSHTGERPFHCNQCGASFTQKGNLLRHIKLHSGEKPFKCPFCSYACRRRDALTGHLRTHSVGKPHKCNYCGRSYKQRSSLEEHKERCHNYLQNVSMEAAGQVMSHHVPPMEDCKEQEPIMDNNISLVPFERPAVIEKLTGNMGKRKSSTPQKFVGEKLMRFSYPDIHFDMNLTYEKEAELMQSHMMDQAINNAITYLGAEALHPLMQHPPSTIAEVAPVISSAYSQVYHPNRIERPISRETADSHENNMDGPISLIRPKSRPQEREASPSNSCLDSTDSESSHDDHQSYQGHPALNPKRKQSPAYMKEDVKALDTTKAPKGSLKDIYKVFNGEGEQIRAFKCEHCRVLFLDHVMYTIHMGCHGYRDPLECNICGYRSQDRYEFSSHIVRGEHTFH
T4 sequence (Q96SW2 whole entry): as the sequence (Q96SW2 whole entry) above
T4 sequence (Q16531 whole entry partner): as the sequence (Q16531 whole entry partner) above

Compound | inhibition at 0.01 µM [1] [%] | inhibition at 0.5 µM [1] [%] | Wee1 substrate protein remaining % (WEE1; [5]) | CK1α substrate protein remaining % (CK1α; [5]) | IKZF3 substrate protein remaining % (IKZF3; [5]) | IKZF2 substrate protein remaining % (IKZF2; [5]) | IKZF 1 substrate protein remaining % (IKZF1; [5]) | inhibition at 0.5 µM [2] [%] | inhibition at 2 µM [2] [%] | GSPT1 substrate protein remaining % (GSPT1; [5]) | inhibition at 0.01 µM [3] [%] | inhibition at 0.5 µM [3] [%] | inhibition at 0.01 µM [4] [%] | inhibition at 0.5 µM [4] [%] | Wee1 substrate protein remaining % (WEE1; [6]) | CK1α substrate protein remaining % (CK1α; [6]) | IKZF3 substrate protein remaining % (IKZF3; [6]) | IKZF2 substrate protein remaining % (IKZF2; [6]) | IKZF 1 substrate protein remaining % (IKZF1; [6]) | GSPT1 substrate protein remaining % (GSPT1; [6])
Cc1ccc(Cl)cc1N1CCN(Cc2ccc3c(c2)CN(C2CCC(=O)NC2=O)C3=S)CC1 (stereo not drawn) [GT-08615, 3-(5-((4-(5-chloro-2-methylphenyl)piperazin-1-yl)methyl)-1-thioxoisoindolin-2-yl)piperidine-2,6-dione] | 10 to 20 | 40 to 50 | B (80%< substrate protein remaining %≤ 100%) | B (80%< substrate protein remaining %≤ 100%) | B (80%< substrate protein remaining %≤ 100%) | B (80%< substrate protein remaining %≤ 100%) | B (80%< substrate protein remaining %≤ 100%) | 30 to 40 | 60 to 80 | A (0% ≤ substrate protein remaining % ≤ 80%) | 5 to 10 | 50 to 60 |  |  |  |  |  |  |  | 
O=C1CCC(N2Cc3cc(CN4CCN(C(c5ccc(F)cc5)c5ccc(F)cc5)CC4)ccc3C2=S)C(=O)N1 (stereo not drawn) [GT-07736, 3-(5-((4-(bis(4-fluorophenyl)methyl)piperazin-1-yl)methyl)-1-thioxoisoindolin-2-yl)piperidine-2,6-dione] | 10 to 20 | 80 to 100 | A (0% ≤ substrate protein remaining % ≤ 80%) | B (80%< substrate protein remaining %≤ 100%) | A (0% ≤ substrate protein remaining % ≤ 80%) | B (80%< substrate protein remaining %≤ 100%) | A (0% ≤ substrate protein remaining % ≤ 80%) | 20 to 30 | 60 to 80 | A (0% ≤ substrate protein remaining % ≤ 80%) | 10 to 20 | 40 to 50 | 10 to 18 | 40 to 60 |  |  |  |  |  | 
COc1ccccc1N1CCN(Cc2ccc3c(c2)CN(C2CCC(=O)NC2=O)C3=S)CC1 (stereo not drawn) [GT-08236, 3-(5-((4-(2-methoxyphenyl)piperazin-1-yl)methyl)-1-thioxoisoindolin-2-yl)piperidine-2,6-dione] |  |  | B (80%< substrate protein remaining %≤ 100%) | B (80%< substrate protein remaining %≤ 100%) | B (80%< substrate protein remaining %≤ 100%) | B (80%< substrate protein remaining %≤ 100%) | B (80%< substrate protein remaining %≤ 100%) | 40 to 53 | 80 to 100 | A (0% ≤ substrate protein remaining % ≤ 80%) | 10 to 20 | 40 to 50 | 10 to 18 | 60 to 80 |  |  |  |  |  | 
O=C1CCC(N2Cc3cc(CN4CCC(c5n[nH]c6cc(F)ccc56)CC4)ccc3C2=S)C(=O)N1 (stereo not drawn) [GT-09269, 3-(5-((4-(6-fluoro-1H-indazol-3-yl)piperidin-1-yl)methyl)-1-thioxoisoindolin-2-yl)piperidine-2,6-dione] | 5 to 10 | 80 to 100 |  |  |  |  |  | 80 to 100 | 80 to 100 |  | 30 to 40 | 80 to 100 | 10 to 18 | 80 to 100 | B (80%< substrate protein remaining %≤ 100%) | B (80%< substrate protein remaining %≤ 100%) | B (80%< substrate protein remaining %≤ 100%) | B (80%< substrate protein remaining %≤ 100%) | B (80%< substrate protein remaining %≤ 100%) | A (0% ≤ substrate protein remaining % ≤ 80%)
O=C1CCC(N2Cc3cc(CN4C5CCC4CN(c4cccc(Cl)c4Cl)C5)ccc3C2=S)C(=O)N1 (stereo not drawn) [GT-08480, 3-(5-((3-(2,3-dichlorophenyl)-3,8-diazabicyclo[3.2.1]octan-8-yl)methyl)-1-thioxoisoindolin-2-yl)piperidine-2,6-dione] | 20 to 30 | 80 to 100 | B (80%< substrate protein remaining %≤ 100%) | B (80%< substrate protein remaining %≤ 100%) | B (80%< substrate protein remaining %≤ 100%) | B (80%< substrate protein remaining %≤ 100%) | B (80%< substrate protein remaining %≤ 100%) | 40 to 53 | 80 to 100 | A (0% ≤ substrate protein remaining % ≤ 80%) | 0 to 5 | 80 to 100 | 25 to 30 | 80 to 100 |  |  |  |  |  | 
O=C1CCC(N2Cc3cc(CN4CCN(c5cc(Cl)ccc5Cl)CC4)ccc3C2=S)C(=O)N1 (stereo not drawn) [GT-08611, 3-(5-((4-(2,5-dichlorophenyl)piperazin-1-yl)methyl)-1-thioxoisoindolin-2-yl)piperidine-2,6-dione] | 20 to 30 | 50 to 60 | B (80%< substrate protein remaining %≤ 100%) | B (80%< substrate protein remaining %≤ 100%) | B (80%< substrate protein remaining %≤ 100%) | B (80%< substrate protein remaining %≤ 100%) | B (80%< substrate protein remaining %≤ 100%) | 30 to 40 | 60 to 80 | A (0% ≤ substrate protein remaining % ≤ 80%) | 0 to 5 | 70 to 80 | 18 to 25 | 80 to 100 |  |  |  |  |  | 
O=C1CCC(N2Cc3cc(CN4CCC(c5ccccc5C(F)(F)F)CC4)ccc3C2=S)C(=O)N1 (stereo not drawn) [GT-08622, 3-(1-thioxo-5-((4-(2-(trifluoromethyl)phenyl)piperidin-1-yl)methyl)isoindolin-2-yl)piperidine-2,6-dione] | 10 to 20 | 70 to 80 | B (80%< substrate protein remaining %≤ 100%) | B (80%< substrate protein remaining %≤ 100%) | B (80%< substrate protein remaining %≤ 100%) | A (0% ≤ substrate protein remaining % ≤ 80%) | B (80%< substrate protein remaining %≤ 100%) | 40 to 53 | 80 to 100 | A (0% ≤ substrate protein remaining % ≤ 80%) | -5 to 0 | 80 to 100 | 10 to 18 | 80 to 100 |  |  |  |  |  | 
Cc1ccc(N2CCN(Cc3ccc4c(c3)CN(C3CCC(=O)NC3=O)C4=S)CC2)cc1 (stereo not drawn) [GT-08603, 3-(1-thioxo-5-((4-(p-tolyl)piperazin-1-yl)methyl)isoindolin-2-yl)piperidine-2,6-dione] | 30 to 40 | 50 to 60 | B (80%< substrate protein remaining %≤ 100%) | B (80%< substrate protein remaining %≤ 100%) | B (80%< substrate protein remaining %≤ 100%) | B (80%< substrate protein remaining %≤ 100%) | B (80%< substrate protein remaining %≤ 100%) | 53 to 60 | 80 to 100 | A (0% ≤ substrate protein remaining % ≤ 80%) | 0 to 5 | 40 to 50 | 40 to 60 | 80 to 100 |  |  |  |  |  | 
Cc1cc(N2CCN(Cc3ccc4c(c3)CN(C3CCC(=O)NC3=O)C4=S)CC2)cs1 (stereo not drawn) [GT-08170, 3-(5-((4-(5-methylthiophen-3-yl)piperazin-1-yl)methyl)-1-thioxoisoindolin-2-yl)piperidine-2,6-dione] |  |  |  |  |  |  |  | 60 to 80 | 80 to 100 |  | 5 to 10 | 60 to 70 | 25 to 30 | 60 to 80 | B (80%< substrate protein remaining %≤ 100%) | A (0% ≤ substrate protein remaining % ≤ 80%) | A (0% ≤ substrate protein remaining % ≤ 80%) | A (0% ≤ substrate protein remaining % ≤ 80%) | B (80%< substrate protein remaining %≤ 100%) | A (0% ≤ substrate protein remaining % ≤ 80%)
